Test results reported in Sander's compilation of Henry's law constants (doi:10.1021/j100876a049).

Experiment: Henry solubility constant Hcp at 298.15 K (mol/(m3 Pa))
Conditions: reference: McAuliffe (1966)

Henry solubility constant Hcp | SMILES
4e-05 | C=CCC [1-butene]
0.00054 | C#CCC [1-butyne]
8.5e-06 | CC(C)C [2-methylpropane]
4.8e-05 | C=C(C)C [2-methylpropene]
1.9e-05 | C=CC(C)C [3-methyl-1-butene]
1.1e-05 | CCCC [butane]
4.7e-06 | CC(C)(C)C [dimethylpropane]
4.7e-05 | C=C [ethene]
4.8e-05 | C=CC [propene]
0.00092 | C#CC [propyne]
